In patent US20080064723A1, “Anti-Hair Graying Agent” (SHISEIDO COMPANY, LTD., priority 2004, published 2008):

system: humans; test: Human anti-hair graying effect test; format: in vivo; settings: 0.25% sample applied on scalps of 10 male subjects, two times per day, 2 ml per time, six months; after use vs before use
Method: As the test substances, compounds 1, 2 and 3 were used. Each test substance was dissolved in a mixed solution of an aqueous 70% ethanol solution plus 1% 1,3-butylene glycol and the resultant mixture used as the sample (test substance concentration: 0.25%).
The number of gray hairs among approximately 1000 hairs was counted before and after use of each sample. The changes of the ratios were used to compare the anti-hair graying actions. Specifically, each sample was applied on the scalps of 10 male subjects two times per day, 2 ml per time, continuously for six months. One thousand hairs of each of the subjects were counted divided into black hairs and gray hairs before the application and right after the end of six months after termination of the application to investigate the hair graying rate. The ratios (%) of the subjects where the hair graying rates after use declined 20% or more compared with before use, changed within ±20% or increased by 20% or more were respectively calculated.

`NC1CCC(C(=O)O)CC1` (stereo not drawn) [Compound 1, 4-aminocyclohexane carboxylic acid] and `O=C(O)C1CCNCC1` [Compound 2, 4-piperidine carboxylic acid] are the same in “Hair graying rate: Changing within ±20% (ratio of subjects)” value: 30% for the first, 30% for the second.

With `CCOC(=O)C1CCNCC1` [Compound 3, 4-piperidine carboxylic acid ethyl ester] the “Hair graying rate: Changing within ±20% (ratio of subjects)” value was 20%.

First: NC1CCC(C(=O)O)CC1 (stereo not drawn) [Compound 1, 4-aminocyclohexane carboxylic acid]
Second: O=C(O)C1CCNCC1 [Compound 2, 4-piperidine carboxylic acid]
The “Hair graying rate: Declining 20% or more (ratio of subjects)” value of the first is higher: 70% for the first, 60% for the second.

`CCOC(=O)C1CCNCC1` [Compound 3, 4-piperidine carboxylic acid ethyl ester] was tested, and the “Hair graying rate: Declining 20% or more (ratio of subjects)” value was 70%.

Compared with `NC1CCC(C(=O)O)CC1` (stereo not drawn) [Compound 1, 4-aminocyclohexane carboxylic acid], `O=C(O)C1CCNCC1` [Compound 2, 4-piperidine carboxylic acid] is higher in “Hair graying rate: Increasing 20% or more (ratio of subjects)” value: 0% for the first, 10% for the second.

In the case of `CCOC(=O)C1CCNCC1` [Compound 3, 4-piperidine carboxylic acid ethyl ester], the “Hair graying rate: Increasing 20% or more (ratio of subjects)” value is reported as 10%.
